Laboratory results published in ChEMBL document CHEMBL4196086, “Recent advances of imidazole-containing derivatives as anti-tubercular agents” (Eur J Med Chem, 2018).
Converted amounts (≈) assume the structure as drawn.

Experiments:
[1] = system: Mycobacterium tuberculosis; test: Antimycobacterial activity against Mycobacterium tuberculosis; assay type: functional
[2] = system: Mycobacterium tuberculosis; test: Potency index, ratio of streptomycin MIC to compound MIC for Mycobacterium tuberculosis; assay type: functional
[3] = system: Mycobacterium tuberculosis; test: Potency index, ratio of ofloxacin MIC to compound MIC for Mycobacterium tuberculosis; assay type: functional
[4] = system: Mycobacterium tuberculosis; test: Potency index, ratio of ethambutol MIC to compound MIC for Mycobacterium tuberculosis; assay type: functional
[5] = system: Mycobacterium tuberculosis; test: Potency index, ratio of ethionamide MIC to compound MIC for Mycobacterium tuberculosis; assay type: functional
[6] = system: Mycobacterium tuberculosis; test: Potency index, ratio of PA-824 MIC to compound MIC for Mycobacterium tuberculosis; assay type: functional
[7] = system: Mycobacterium tuberculosis; test: Potency index, ratio of isoniazid MIC to compound MIC for Mycobacterium tuberculosis; assay type: functional
[8] = system: Mycobacterium tuberculosis; test: Potency index, ratio of pyrazinamide MIC to compound MIC for Mycobacterium tuberculosis H37Rv; assay type: functional
[9] = system: Mycobacterium tuberculosis; test: Antimycobacterial activity against Mycobacterium tuberculosis H37Rv after 5 days by MABA; assay type: functional; settings: 120 h
[10] = system: Mycobacterium tuberculosis; test: Potency index, ratio of streptomycin MIC to compound MIC for Mycobacterium tuberculosis H37Rv; assay type: functional
[11] = system: Mycobacterium tuberculosis; test: Potency index, ratio of isoniazid MIC to compound MIC for Mycobacterium tuberculosis H37Rv; assay type: functional
[12] = system: Mycobacterium tuberculosis; test: Potency index, ratio of ciprofloxacin MIC to compound MIC for Mycobacterium tuberculosis H37Rv; assay type: functional
HEK293 = test: Cytotoxicity against HEK293 cells after 24 hrs by MTT assay; assay type: cell-based; settings: Homo sapiens, HEK293, 24 h
[13] = system: Mycobacterium tuberculosis; test: Antimycobacterial activity against non-replicating Mycobacterium tuberculosis; assay type: functional
[14] = system: Mycobacterium tuberculosis; test: Antimycobacterial activity against replicating Mycobacterium tuberculosis; assay type: functional
[15] = system: Mycobacterium tuberculosis; test: Antimycobacterial activity against Mycobacterium tuberculosis ATCC 35828; assay type: functional
[16] = system: Mycobacterium tuberculosis; test: Antimycobacterial activity against Mycobacterium tuberculosis ATCC 27294; assay type: functional
[17] = system: Mycobacterium tuberculosis; test: Antimycobacterial activity against Mycobacterium tuberculosis ATCC 35837; assay type: functional
[18] = system: Mycobacterium tuberculosis; test: Antimycobacterial activity against Mycobacterium tuberculosis ATCC 35820; assay type: functional
[19] = system: Mycolicibacterium smegmatis; test: Antimycobacterial activity against Mycobacterium smegmatis; assay type: functional
[20] = system: Mycolicibacterium fortuitum; test: Antimycobacterial activity against Mycobacterium fortuitum; assay type: functional
[21] = system: Mycobacterium tuberculosis; test: Antimycobacterial activity against Mycobacterium tuberculosis ATCC 35822; assay type: functional
[22] = system: Mycobacterium tuberculosis; test: Antimycobacterial activity against Mycobacterium tuberculosis H37Rv ATCC 27294 by serial dilution assay; assay type: functional
[23] = system: Mycobacterium tuberculosis; test: Antimycobacterial activity against Mycobacterium tuberculosis H37Rv; assay type: functional

SMILES | Ratio [8] | MIC [9] [µg/mL] | Ratio [10] | Ratio [11] | Ratio [12] | IC50 (HEK293) [µg/mL] | further results
Cc1ccn2c(C(=O)NCc3ccccc3Cl)c(C)nc2c1 | – | – | – | – | – | – | MIC [1]: 0.003 µM (≈ 0.000941 µg/mL); Ratio [2]: >100; Ratio [3]: >100; Ratio [4]: >100; Ratio [5]: >100; Ratio [6]: >100; Ratio [7]: >100
Cn1c(-c2cccc(Cl)c2Cl)nc2cc(-c3nc(-c4ccc(Cl)cc4)no3)ccc21 | 2 | 1.6 to 25 (≈ 3.51 to 54.9 µM) | 4 | 4 | 2 | > 500 | –
Cn1c(-c2cccc(Cl)c2F)nc2cc(-c3nc(Cc4cccc(Cl)c4)no3)ccc21 | 2 | 1.6 to 25 (≈ 3.53 to 55.2 µM) | 4 | 4 | 2 | > 500 | –
CCCc1cc(=O)oc2c1c(OC)cc1[nH]c(C(=O)OCC)[n+]([O-])c12 | – | – | – | – | – | – | MIC [13]: > 50 µg/mL; MIC [14]: > 50 µg/mL
Cn1c(-c2cccc(Cl)c2Cl)nc2cc(-c3nc(-c4ccccc4Cl)no3)ccc21 | 2 | 1.6 to 25 (≈ 3.51 to 54.9 µM) | 4 | 4 | 2 | 355 (≈ 780 µM) | –
CCCc1cc(=O)oc2c1c(OC)cc1[nH]c(C(=O)N(C)C)[n+]([O-])c12 | – | – | – | – | – | – | MIC [13]: > 50 µg/mL; MIC [14]: > 50 µg/mL
Clc1ccc(-n2ncc(C(c3ccccc3)n3ccnc3)c2-c2ccccc2Cl)c(Cl)c1 (configuration not stated) | – | – | – | – | – | – | MIC [15]: 6.7 to 57.7 µM (≈ 3.21 to 27.7 µg/mL); MIC [16]: 6.7 to 57.7 µM (≈ 3.21 to 27.7 µg/mL); MIC [17]: 6.7 to 57.7 µM (≈ 3.21 to 27.7 µg/mL); MIC [18]: 6.7 to 57.7 µM (≈ 3.21 to 27.7 µg/mL); MIC [19]: 6.7 to 57.7 µM (≈ 3.21 to 27.7 µg/mL); MIC [20]: 6.7 to 57.7 µM (≈ 3.21 to 27.7 µg/mL); MIC [21]: 6.7 to 57.7 µM (≈ 3.21 to 27.7 µg/mL)
CCCSc1nnc(-c2ncc([N+](=O)[O-])n2C)s1 | – | – | – | – | – | – | MIC [22]: 3.12 µg/mL (≈ 10.9 µM)
CCCc1cc(=O)oc2c1c(OCCN1CCOCC1)cc1[nH]c(C(=O)N(C)C)[n+]([O-])c12 | – | – | – | – | – | – | MIC [13]: > 50 µg/mL; MIC [14]: > 50 µg/mL
Cn1c(-c2cccc(Cl)c2F)nc2cc(-c3nc(-c4ccc(Cl)cc4)no3)ccc21 | 2 | 1.6 to 25 (≈ 3.64 to 56.9 µM) | 4 | 4 | 2 | > 500 | –
CO[C@H]1/C=C/O[C@@]2(C)Oc3c(C)c(O)c4c(O)c(c(/C=N/N5CCN(C)CC5)c(O)c4c3C2=O)NC(=O)/C(C)=C\C=C\[C@H](C)[C@H](O)[C@@H](C)[C@@H](O)[C@@H](C)[C@H](OC(C)=O)[C@@H]1C [RIFAMPIN] | – | – | – | – | – | – | MIC [22]: 0.125 to 0.25 µg/mL (≈ 0.152 to 0.304 µM); MIC98 [23]: 40 µg/mL (≈ 48.6 µM)
